Reference: US20250345253A1 (priority 2024, published 2025)

Assay: In vitro whitening and cleaning of stained test samples

## O=c1nc([O-])n(Cl)c(=O)n1Cl.[Na+] [dichloroisocyanurate]
Compared with cleaning solutions of up to 25% hydrogen peroxide and hydrogen peroxide salts (sodium perborate)
  Whitening and cleaning performance versus hydrogen peroxide solutions and salts: outperformed both hydrogen peroxide cleaning solutions of up to 25% hydrogen peroxide and hydrogen peroxide salts (sodium perborate)
Compared with other cleaning formulations containing hydrogen peroxide
  Whitening and cleaning of stained test samples: whitened and cleaned stained test samples better than other cleaning formulations containing hydrogen peroxide
